The text below walks through data of patent publication US11179395B2, “Treating melanoma with mebendazole and a mitogen-activated kinase inhibitor” (GEORGETOWN UNIVERSITY, priority 2017, dated 2021).

SMILES strings stand for the structures. Where two headings read alike, the source gives them in different places.

Series [1] can be described thus: Pharmacokinetic studies of MBZ formulations. Format: in vivo, athymic mice. To be noted: for mean plasma exposure at 8 hours / concentration at 8 h: MBZ 40 mg/kg oral gavage; for concentration at 8 h: athymic, mouse, plasma, oral, 40 mg/kg, read-out: mean plasma exposure at 8 hours. How it is done:
In pharmacokinetic (PK) studies, MBZ was administered to athymic mice (described below) by oral gavage at a dose of 40 mg/kg in three different formulations (methylcellulose, oleic acid, or sesame oil/PBS) or methylcellulose in combination with cimetidine. MBZ and two metabolites, 2-Amino-5-benzoyl-1H bezimidizole (2ABB), and rac Dihydro MBZ (RDM), were quantified in mouse plasma as described in Bai et al., “Brain Penetration and Efficacy of Different Mebendazole Polymorphs in a Mouse Brain Tumor Model,” Clin. Cancer Res. 21:3462-3470 (2015)).

The nature of series [2]: Pharmacokinetic studies of MBZ formulations. The class given is in vivo, athymic mice. As to conditions: MBZ 40 mg/kg oral gavage; for lower exposure with trametinib co-administration vs. methylcellulose: 8 hours.
In series [3] the target is BRAFV600E (Homo sapiens, UniProt P15056, V600E). Nature of the series: In-vitro binding affinity of MBZ (FIG. 1C). The text has this:
(§1) Efforts to develop drugs targeting mutant BRAF led to FDA approval of vemurafenib in 2011 and dabrafenib in 2013. […] In addition, other MAPK pathway proteins including CRAF and MEK were identified.

Series [4] concerns the target BRAFWT (Homo sapiens, UniProt P15056). Kind of series: In-vitro binding affinity of MBZ (FIG. 1C).
Excerpt: as §1

For series [5], the system named is BAK (BRAFWT/NRASQ61K) melanoma cells. Kind of series: XTT cell viability assay. As to conditions: Homo sapiens; cultured NRAS cells, FIG. 2A; read-out: IC80 (equivalent to patient mean peak plasma concentration). The class given is cell-based. (In general: Formazan colour is commonly taken as a measure of viable cells.)
Experimental: MBZ, dabrafenib, and trametinib were purchased from Sigma-Aldrich (St. Louis, Mo.) and ActiveBiochem (Maplewood, N.J.), respectively. […] Cell viability was assessed by an XTT assay, according to a manufacturer's specifications (Biotium Inc (Fremont, Calif.)). Reduced XTT was measured by absorbance at 490 nm on a PerkinElmer Victor 3 (Duluth, Ga.) plate reader. […]
The results shown are based on a single experiment in triplicate, and repeated in three independent experiments with essentially the same results. […] For determining synergism, the combination index (τ) was calculated from single dose-response curves and combination experiments as τ=xA/XA+xB/XB, in which, for a given cytotoxic effect, xA and xB are the concentrations of drugs A and B in the combination, and XA and XB are the concentrations of drugs A and B that achieve the same cytotoxic effect when given alone. […]
Series [6] has as its system MEK1/2 and ERK1/2 phosphorylation. Kind of series: Immunoblot analysis of xenograft tumor extracts. The class given is in vivo, athymic mice. As to conditions: tumors collected at termination of experiment; combination is HDT+MBZ. How it is done: Athymic mice were injected with 3×10^6 BAK melanoma cells, and tumors were allowed to grow to a volume of 100 mm^3. […] Time 0 is the tumor volume on the first day of treatment; tumor sizes were normalized to their size at time 0 of drug treatment. B) Mice were weighed every other day and body weights (g) plotted over time. Data from four experiments were combined for statistical analysis, to compare every mouse from each treatment group. The total mice for all experiments included vehicle control (n=13), LDT (n=12), MBZ (n=12), HDT (n=12), LDT+MBZ (n=12), and HDT+MBZ (n=15). The results are shown as the mean (+SD) of tumor volume in each group. C) and D) ERK and MEK phosphorylation was suppressed in large (C) or small (D) tumor xenografts from mice treated with T+MBZ. Tumor extracts were derived from xenografts, then subjected to immunoblot analysis using antibodies specific for total BRAT, phospho-BRAF, ERK1/2, phospho-ERK1/2, total MEK1/2, phospho-MEK1/2, or GAPDH as a loading control. SDS-PAGE and transfer of separated proteins to nitrocellulose membranes were performed according to standard procedures. […] Immune complexes were detected by incubation with appropriate horseradish peroxidase-conjugated antibodies to mouse or rabbit IgG (1:3000) and enhanced chemiluminescence (Pierce, Rockford, Ill.).

Series [7] relates to patient-derived metastatic melanoma cells harboring a BRAFWT/NRASQ61K mutation profile. Kind of series: Treatment of patient-derived metastatic melanoma cells (FIG. 7). The class given is cell-based, Human. The source says: In additional studies, patient-derived cells harboring a BRAFWT/NRASQ61K mutation profile were separated into CD133+ populations and CD133− populations.

Series [8] has as its system BAK (BRAFWT/NRASQ61K) melanoma xenografts. Kind of series: Mouse xenografting, tumor growth. To be noted: oral gavage; MBZ 40 mg/kg/qad, trametinib 0.1 or 3 mg/kg/qd. Format: in vivo, athymic mice.
Experimental: Athymic mice were injected with 3×10^6 BAK melanoma cells, and tumors were allowed to grow to a volume of 100 mm^3. Animals were then gavaged with vehicle emulsion control, 40 mg/kg/qad (every other day) MBZ, low dose trametinib (LDT; 0.1 mg/kg/qd (once a day)), high dose trametinib (HDT; 3 mg/kg/qd) or a combination of MBZ and LDT or HDT, A) Tumor widths and lengths were measured and volumes calculated as w2×l/2, where width is defined as the smaller of the tumor dimensions. Time 0 is the tumor volume on the first day of treatment; tumor sizes were normalized to their size at time 0 of drug treatment. B) Mice were weighed every other day and body weights (g) plotted over time. […]
Athymic 6-week old male mice (Taconic (Hudson, N.Y.)) were acclimated to the Division of Comparative Medicine at Georgetown University a week prior to xenografting. […] Tumor growth was measured with calipers, and drug treatment started when tumor volumes reached 100 mm^3, after which mice were monitored daily for drug efficacy, as well for adverse effects, including weight and behavior. […] Each tumor from each treatment group was measured on indicated days, and all tumor sizes were then normalized to their size at day 0 of drug treatment. […] The results were expressed as the mean (±SD) of tumor volume in each group.
The target in series [9] is CRAF (Homo sapiens, UniProt P04049). Nature of the series: Affinity of MBZ for CRAF. The class given is binding. The text has this: MBZ interacts with VEGFR in silico and MBZ interacts with additional kinases in vitro, including BCR-ABL and BRAF. TMFS was used to show the nature of the interactions between MBZ, and VEGFR, and with BRAFWT or BRAFV600E. […] In fact these inhibitors actually enhance growth of NRASmut/BRAFWT tumors by paradoxically further activating the MAPK pathway through induced conformational changes in wild type RAF isoforms, inducing dimerization, membrane localization, and activation by RAS.

In series [10] the test system is MEK. Kind of series: In-vitro kinase assay. The class given is biochemical.
Excerpt: as §1

In series [11] the test system is BRAF. Kind of series: In-vitro kinase assay. The class given is biochemical.
Excerpt: as §1

The subject of series [12] is MEK/ERK pathway in BAK cells. Nature of the series: Immunoblot analysis of cultured cells. To be noted: 100 nM; for pMEK1/2 S217/221 phosphorylation: combination within 30 min. The class given is cell-based, Human. The source says: FIGS. 5A-H are RPPA (A) and immunoblot (B-E) analyses that reveal suppression of the MAPK pathway, including ERK and its downstream substrates in melanoma cells exposed to MBZ+trametinib. A. […] Cell extracts derived at indicated times were subjected to RPPA analysis, and unsupervised hierarchal clustering was used to generate a heat map as described in Materials and Methods. […] F)-H) Immunoblot experiments were repeated with an additional melanoma cell line BUL, which harbors the same NRASQ61K mutation. […] All immunoblots were then reprobed with GAPDH as loading control. SDS-PAGE and transfer of separated proteins to nitrocellulose membranes were performed according to standard procedures. Membranes were stained with Ponceau S (0.1%) to verify equal loading and transfer of proteins, and then incubated with antibodies specific for pERK1/2 T202/Y204, pMEK1/2 S217/221, pBAD S-112, total BAD, total ERK1/2, total MEK1/2, BCL2 (Santa Cruz Biotech), BCLXL (Santa Cruz Biotech (Santa Cruz, Calif.)), cleaved PARP (Cell Signaling (Danvers, Mass.)), or GAPDH (Abeam (Cambridge, UK); loading control). Immune complexes were detected by incubation with appropriate horseradish peroxidase-conjugated antibodies to mouse or rabbit IgG (1:3000) and enhanced chemiluminescence (Pierce, Rockford, Ill.).

The target of series [13] is VEGFR2 (Homo sapiens, UniProt P35968). Kind of series: MBZ potency towards VEGFR2 compared with BRAF (FIG. 1C). The class given is biochemical.
Series [14] relates to BAK, BUL and STU melanoma cells. Kind of series: XTT cell viability assay, all three melanoma cell lines. Format: cell-based, Human. As to conditions: 72 h. How it is done: FIGS. 2A-2C show decreased viability of melanoma cells exposed to MBZ, dabrafenib (D), trametinib (T), or combinations of T+D or MBZ+trametinib. A) BAK (BRAFWT/NRASQ61K); B) BUL (BRAFWT/NRASQ61K); and C.) STU (BRAFV600K/NRASWT) melanoma cells were exposed to the indicated concentrations of MBZ, D, T, T+D or MBZ+trametinib (T+MBZ) for 72 h, and subjected to XTT cell viability assays, as described in the Examples. Error bars represent mean±SD for triplicates. […] The results shown are based on a single experiment in triplicate; and repeated in three independent experiments with essentially the same results.
MBZ, dabrafenib, and trametinib were purchased from Sigma-Aldrich (St. Louis, Mo.) and ActiveBiochem (Maplewood, N.J.), respectively. 5×10^3 viable cells per well were plated in 96-well dishes and allowed to recover for 12 h prior to drug treatment. Cells in triplicate wells were treated for up to 72 h (based on initial time course experiments showing maximal effects at that time point) with different concentrations of trametinib, dabrafenib, or MBZ alone, or a combination of MBZ and trametinib. Negative controls were exposed to vehicle DMSO in the same volumes. Cell viability was assessed by an XTT assay, according to a manufacturer's specifications (Biotium Inc (Fremont, Calif.)). Reduced XTT was measured by absorbance at 490 nm on a PerkinElmer Victor 3 (Duluth, Ga.) plate reader. Cells exposed to detergent served as a positive control.

For series [15] the following is noted: 10 mg/kg/day, chronic MBZ; cited from earlier work.
In series [16] the test system is MEK/ERK pathway in BAK NRASQ61K melanoma cells. Kind of series: Reverse-phase protein array (RPPA). The class given is cell-based, Human. As to conditions: 10 nM or 100 nM; 1, 8 or 24 h.
Experimental: Cell lysates were analyzed by reverse-phase protein array (RPPA). Samples were diluted to 0.5 mg/mL and dilutions printed on slides in triplicate. Slides were immunostained with 137 different antibodies specific for total proteins, or phosphorylated or cleaved products. […] Intensity values were normalized to that of total protein for each sample stained with Sypro Ruby (Invitrogen Carlsbad, Calif.)). Unsupervised cluster analysis http://www.hiv.1an1.ov/content/sequence/HEATMAP/heatmap.html was performed for all proteins in the RPPA using the standard bootstrap method.
Given the potential changes in tumor cell signaling and survival over the long time course of the xenografts, potential mechanisms by which MBZ+trametinib exerts its cytotoxic effects were examined using cultured BAK NRASQ61K melanoma cells. Cells were exposed to MBZ (10 nM or 100 nM), trametinib (10 nM or 100 nM), or a combination of the two for 1, 8, or 24 h, after which cell extracts were subjected to reverse-phase protein array (RPPA) analysis.

Broadly, the Kd is the equilibrium constant for the complex coming apart. A higher Kd goes with a looser complex.

Chain of BRAFV600E (P15056 whole entry V600E): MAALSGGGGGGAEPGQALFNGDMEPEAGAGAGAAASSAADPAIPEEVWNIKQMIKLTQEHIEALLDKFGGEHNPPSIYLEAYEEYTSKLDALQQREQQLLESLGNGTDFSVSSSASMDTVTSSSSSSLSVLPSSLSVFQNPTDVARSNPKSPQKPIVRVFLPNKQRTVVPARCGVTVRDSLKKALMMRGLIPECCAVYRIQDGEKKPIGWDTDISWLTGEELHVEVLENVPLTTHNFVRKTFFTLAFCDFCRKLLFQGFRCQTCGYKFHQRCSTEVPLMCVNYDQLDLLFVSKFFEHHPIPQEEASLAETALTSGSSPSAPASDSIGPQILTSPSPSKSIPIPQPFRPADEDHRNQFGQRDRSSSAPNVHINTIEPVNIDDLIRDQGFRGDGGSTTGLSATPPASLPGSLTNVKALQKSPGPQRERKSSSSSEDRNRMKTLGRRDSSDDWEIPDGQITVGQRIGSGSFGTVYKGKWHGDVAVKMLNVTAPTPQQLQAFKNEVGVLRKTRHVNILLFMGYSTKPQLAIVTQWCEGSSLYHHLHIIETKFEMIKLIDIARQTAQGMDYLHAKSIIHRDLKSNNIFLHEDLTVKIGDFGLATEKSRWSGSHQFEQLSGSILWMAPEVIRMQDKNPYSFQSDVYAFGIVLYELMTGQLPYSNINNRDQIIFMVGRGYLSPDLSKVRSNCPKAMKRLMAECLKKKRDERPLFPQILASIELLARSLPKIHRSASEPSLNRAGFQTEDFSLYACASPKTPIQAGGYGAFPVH
Chain of CRAF (P04049 whole entry, canonical isoform): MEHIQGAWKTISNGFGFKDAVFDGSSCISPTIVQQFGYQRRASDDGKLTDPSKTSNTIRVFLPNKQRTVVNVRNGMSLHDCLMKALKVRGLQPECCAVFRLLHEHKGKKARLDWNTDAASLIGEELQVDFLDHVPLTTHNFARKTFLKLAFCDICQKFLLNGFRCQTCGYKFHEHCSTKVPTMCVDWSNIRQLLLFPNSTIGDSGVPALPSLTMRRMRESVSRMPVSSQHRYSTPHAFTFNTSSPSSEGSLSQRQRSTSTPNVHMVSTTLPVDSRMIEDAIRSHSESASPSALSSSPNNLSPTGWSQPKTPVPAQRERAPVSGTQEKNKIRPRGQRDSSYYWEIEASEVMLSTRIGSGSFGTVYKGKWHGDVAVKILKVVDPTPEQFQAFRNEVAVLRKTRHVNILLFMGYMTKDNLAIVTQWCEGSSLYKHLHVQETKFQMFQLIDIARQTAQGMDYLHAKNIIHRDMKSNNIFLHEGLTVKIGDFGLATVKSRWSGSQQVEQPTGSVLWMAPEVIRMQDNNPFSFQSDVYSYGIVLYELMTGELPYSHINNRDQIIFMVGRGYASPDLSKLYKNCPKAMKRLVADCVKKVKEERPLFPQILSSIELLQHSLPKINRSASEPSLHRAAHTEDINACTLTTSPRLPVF
Chain of VEGFR2 (P35968 20-1356): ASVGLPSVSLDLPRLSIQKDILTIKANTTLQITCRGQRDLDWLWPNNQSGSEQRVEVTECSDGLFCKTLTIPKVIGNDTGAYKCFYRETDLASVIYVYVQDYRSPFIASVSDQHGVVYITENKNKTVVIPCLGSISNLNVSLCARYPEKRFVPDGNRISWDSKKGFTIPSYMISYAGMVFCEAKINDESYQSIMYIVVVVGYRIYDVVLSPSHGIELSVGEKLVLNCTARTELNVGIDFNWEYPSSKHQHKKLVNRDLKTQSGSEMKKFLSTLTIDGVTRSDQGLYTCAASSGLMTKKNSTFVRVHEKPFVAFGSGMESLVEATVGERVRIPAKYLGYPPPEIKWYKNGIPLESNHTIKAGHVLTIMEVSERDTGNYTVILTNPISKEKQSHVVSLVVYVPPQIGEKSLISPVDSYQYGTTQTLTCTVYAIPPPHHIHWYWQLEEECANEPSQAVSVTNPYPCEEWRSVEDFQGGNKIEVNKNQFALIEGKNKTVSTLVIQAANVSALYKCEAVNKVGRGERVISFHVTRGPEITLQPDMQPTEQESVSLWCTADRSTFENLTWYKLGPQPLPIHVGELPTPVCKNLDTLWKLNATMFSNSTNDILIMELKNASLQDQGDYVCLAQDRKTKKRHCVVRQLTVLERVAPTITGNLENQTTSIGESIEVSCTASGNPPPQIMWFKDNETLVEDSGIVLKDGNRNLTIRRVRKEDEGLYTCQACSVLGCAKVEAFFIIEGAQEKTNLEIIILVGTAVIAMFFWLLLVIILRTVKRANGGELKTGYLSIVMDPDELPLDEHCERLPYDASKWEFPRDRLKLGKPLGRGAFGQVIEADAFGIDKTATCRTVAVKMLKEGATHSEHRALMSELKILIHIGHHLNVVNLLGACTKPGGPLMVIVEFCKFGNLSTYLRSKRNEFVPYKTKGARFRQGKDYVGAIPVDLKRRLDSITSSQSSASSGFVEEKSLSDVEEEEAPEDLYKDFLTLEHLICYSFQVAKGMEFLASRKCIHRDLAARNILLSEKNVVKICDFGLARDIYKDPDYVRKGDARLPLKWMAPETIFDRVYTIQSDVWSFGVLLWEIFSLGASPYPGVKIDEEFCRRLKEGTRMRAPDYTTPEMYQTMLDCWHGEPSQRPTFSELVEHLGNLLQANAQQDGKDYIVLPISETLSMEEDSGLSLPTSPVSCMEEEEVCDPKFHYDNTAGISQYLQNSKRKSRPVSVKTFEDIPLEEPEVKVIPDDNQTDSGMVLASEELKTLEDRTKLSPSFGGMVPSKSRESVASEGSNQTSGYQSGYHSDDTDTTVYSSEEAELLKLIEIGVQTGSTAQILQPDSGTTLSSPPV
Chain of BRAFWT (P15056 whole entry): as the sequence (P15056 whole entry V600E) above, with E600V counted along it

For `COC(=O)Nc1nc2ccc(C(O)c3ccccc3)cc2[nH]1` (racemic) [RDM, rac Dihydro MBZ], the “mean plasma exposure at 8 hours” value is listed as 57 ng/mL in [1] (methylcellulose formulation) and 543 ng/mL in series [1] (oleic acid formulation). In addition, the “lower exposure with trametinib co-administration vs. methylcellulose” value in series [2] is “did not alter”.

In the case of `COC(=O)Nc1nc2ccc(C(=O)c3ccccc3)cc2[nH]1` [MBZ, methyl N-[6-(benzoyl)-1H-benzimidazol-2-yl] carbamate], the values for the dissociation constant (Kd) in [3] and in series [4] were 210 nM and 230 nM, respectively. Besides, the IC80 in series [5] is around 470 nM. In addition, the “MEK1/2 and ERK1/2 phosphorylation in tumors” value in series [6] is “suppress MEK and ERK phosphorylation”. For the same compound, the concentration at 8 h in [1] (methylcellulose formulation) came out at 473 ng/mL; in series [1] (oleic acid formulation), 1390 ng/mL. In series [1] (one hour, P>0.05 Kruskal-Wallis), the “difference in exposure between formulations or combinations” value was “no difference”. Besides, in series [7], the sensitivity to treatment result is on record as “sensitivity”. In addition, the tumor growth entry in series [8] is reported as “did not work as a monotherapy”. Further, the “affinity for CRAF” value in series [9] is “very low affinity”. Besides, the “inhibition of kinase activity by MBZ” value in series [10] and in series [11] was “nM range” in each case. For the same compound, the “lower exposure with trametinib co-administration vs. methylcellulose” value in series [2] is recorded as “did not alter”. Further, the “ERK1/2 (T202/Y204) phosphorylation” value in series [12] (combination undetectable by 30 min) was “diminished”. The “pMEK1/2 S217/221 phosphorylation” value in series [12] is reported as “not inhibited”. In [13], the “potency towards BRAF versus VEGFR2” value was “more potency towards BRAF”. Further, the “cytotoxicity as single agent” value in series [14] is given as “weak cytotoxic activity”. Moreover, in series [14] (2-way ANOVA), the “concentration at which significant growth inhibition was observed” value is at least 10 nM. Moreover, the “mean peak plasma level” value in [15] was 470 nM. Further, in series [15], the “peak plasma level, variability between patients” value is 0.34 to 1.69 µM. Moreover, the “phosphorylation of proteins associated with the MEK/ERK pathway” value in [16] is reported as “down-regulated”.

Turning to `Nc1nc2cc(C(=O)c3ccccc3)ccc2[nH]1` [2ABB, 2-Amino-5-benzoyl-1H bezimidizole], the “mean plasma exposure at 8 hours” value is 425 ng/mL in series [1] (methylcellulose formulation), 427 ng/mL in [1] (oleic acid formulation) and 242 ng/mL in [2] (trametinib co-administration). Further, in series [2], the “lower exposure with trametinib co-administration vs. methylcellulose” value is around 45%.

With `CC(=O)Nc1cccc(-n2c(=O)n(C3CC3)c(=O)c3c(Nc4ccc(I)cc4F)n(C)c(=O)c(C)c32)c1` [trametinib], the “pMEK1/2 S217/221 phosphorylation” value in [12] is “not inhibited”.

As for `CC(C)(C)c1nc(-c2cccc(NS(=O)(=O)c3c(F)cccc3F)c2F)c(-c2ccnc(N)n2)s1` [dabrafenib], in [14], the “cytotoxicity as single agent” value is on record as “resistance”.
